Experimental data reported in US20160361311A1, “LIGANDS THAT TARGET HEPATITIS C VIRUS E2 PROTEIN” (AMERICAN UNIVERSITY OF CAIRO, priority 2014, published 2016).
Read-outs that look alike come from different tables or passages of the source.

Key:
[1] = system: HCVcc; assay: HCVcc infection of Huh-7 cells (Gaussia luciferase); type: cell-based, HCV; conditions: Hepatitis C virus, Huh-7, 30 h, read-out: IC50 HCVcc
Description: The cell culture-produced HCV particles (HCVcc) used in this study were based on the JFH1 strain [36] and were prepared as described previously. They were engineered to express the A4 epitope, titer-enhancing mutations and Gaussia luciferase.
(§1) To identify ligands that inhibit HCV infection, Huh-7 cells were seeded in 96-well plates and treated the day after with six different concentrations of each ligand diluted in DMSO in duplicate using a Zephyr automated liquid handling workstation (Caliper BioSciences, Hopkinton, Mass.). The final concentration of DMSO (1%) was adjusted to be the same for all ligand concentrations. Cells treated with DMSO were used as negative controls. Cells treated with different concentrations of anti-CD81 (JS-81 from BD Pharmingen, San Jose, Calif.) 1 hour before infection, were also used as positive controls. The third day, RD114pp, HCVpp or HCVcc were inoculated and incubated for 30 hours at 37° C. Firefly and Gaussia luciferase assays were performed as indicated by the manufacturer (Promega, San Luis Obispo, Calif.).
(§2) The remaining ligands were next tested against pseudotyped retroviral particles harboring genotype-2a HCV envelope proteins (HCVpp 2a), cell culture produced HCV particles (HCVcc) or RD114pp. As a positive control, an anti-CD81 antibody was used in parallel.

[2] = system: RD114pp; assay: RD114pp infection of Huh-7 cells (luciferase); type: cell-based, feline endogenous virus RD114; conditions: read-out: IC50 RD114pp
Description: (§3) Pseudotyped retroviral particles harboring HCV envelope proteins (HCVpp) from different genotypes were produced as described previously. A plasmid encoding the feline endogenous virus RD114 glycoprotein [35] was used for the production of RD114pp. Both HCVpp and RD114pp expressed Firefly luciferase.
as §1
Pseudotyped retroviral particles harboring the envelope protein of an endogenous feline retrovirus (RD114pp) were first used to determine the specificity and the safety of molecules.

[3] = target: T1, recombinant E2 protein (Hepatitis C virus genotype 1b, UniProt Q9WMX2); assay: Surface plasmon resonance (Biacore T100) binding to recombinant E2 immobilized on CM5 chip; conditions: for Binding (RU): 200 μM ligand in PBS, 3 min association; for rate of ligand dissociation (in words): compared to the other ligands; for Dissociation 1 (RU): response remaining 10 sec after rinsing with buffer; for Dissociation 2 (RU): response remaining 50 sec after rinsing with buffer
T1 construct: encoding amino acids 384-656 of the Con1 envelope protein 2 ectodomain (eE2); made in house; host or cells: HEK293T cells (lentiviral, secreted)
T1 sequence (Q9WMX2 384-656): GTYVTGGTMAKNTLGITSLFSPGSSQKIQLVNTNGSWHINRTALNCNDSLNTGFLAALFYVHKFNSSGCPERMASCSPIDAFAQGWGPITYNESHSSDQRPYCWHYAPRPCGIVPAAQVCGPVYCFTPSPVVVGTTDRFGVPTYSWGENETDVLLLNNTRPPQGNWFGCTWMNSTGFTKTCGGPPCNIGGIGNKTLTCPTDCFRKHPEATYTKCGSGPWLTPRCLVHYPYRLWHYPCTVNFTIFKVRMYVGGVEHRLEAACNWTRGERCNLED
From the text: A construct containing the sequence encoding amino acids 384-656 of the Con1 envelope protein 2 ectodomain (eE2), a genoptype 1 E2 sequence, was cloned into a lentiviral expression vector with a carboxy-terminal Protein A tag separated by a PreScission Protease cleavage consensus sequence. eE2-ProtA was stably expressed in HEK293T cells using lentiviral infection. The protein was secreted into the media and supernatants were purified using IgG Sepharose (GE Healthcare, Piscataway, N.J.). eE2-ProtA was eluted with 100 mM sodium citrate and 20 mM KCl at pH 3 directly into tubes containing 1M Tris pH 9 for immediate neutralization. PreScission Protease was added to the eluted sample at a ratio of 1:50 (enzyme:eE2), and the digest was then dialyzed into 20 mM HEPES pH 7.5, 250 mM NaCl, 5% glycerol. eE2 was separated from the cleaved tag and the PreScission Protease by ion exchange chromatography.
The set of 34 of the ligands predicted by AutoDock to bind to E2 were tested experimentally to determine if they bind to recombinant E2 protein immobilized on a chip using surface Plasmon resonance. The SPR analyses were performed using a Biacore T100 workstation (GE Healthcare, NJ, USA) and Prot-A-tagged HCV E2 protein. 1 μM ProtA-HCV E2 was diluted into 10 mM sodium acetate buffer pH 5 and immobilized for 15 min at a flow speed of 5 μl/min onto a CM5 sensor chip using amine coupling (EDC-NHS). Approximately 10,000 response units (RU) of protein were immobilized on the chip. His-CD81-LEL (Bioclone-CA/USA) binding to HCV E2 was tested prior to injecting the ligands to confirm the E2 protein was functional and would bind CD81-LEL. In a typical experiment with CD81, […] of his-CD81 in 114 μl PBS was injected into channel 2 and 106.4 RUs of CD81 bound to the E2 on the chip. This was followed by testing the binding of the 34 virtual screening hits where the ligands were prepared as 200 μM solutions in PBS and they were introduced to the protein using a pre-programmed 3 min association and 1 min dissociation interval. The response was measured at two time points during dissociation, 10 and 50 seconds, to obtain information on the rate of ligand dissociation from E2. Twenty-three of the ligands predicted by AutoDock to bind to E2 were observed by SPR to bind to the recombinant protein (Table 2). The measured responses for the ligands that bound varied from 54 to 276 RUs. Data was also obtained on the rate of ligand dissociation by measuring the amount of ligand remaining bound at two time points, dissociation 1 (10 seconds) and dissociation 2 (50 seconds), during the rinsing of the chip with buffer (FIG. 8). The majority of the ligands dissociated quickly, as one might expect for small molecules that bind to the surface of a protein.

[4] = system: HCVpp 2a; assay: HCVpp 2a infection of Huh-7 cells, 96-well (luciferase); type: cell-based, HCV; conditions: Hepatitis C virus, Huh-7, 30 h, read-out: IC50 HCVpp
Description: as §3, §1, §2

[5] = Feline endogenous virus RD114, Huh-7, 30 h

SMILES: C1C[C@H]2NCC[C@@H]3NCC[C@H](N1)N32 [Ligand 81462]
- IC50 [1]: > 10 µM
- IC50 [2, 5]: > 10 µM
- Binding (RU) [3]: 57.2 RU
- rate of ligand dissociation (in words) [3]: slower off rates
- Dissociation 1 (RU) [3]: 9.2 RU
- Dissociation 2 (RU) [3]: 6.5 RU
- IC50 [4]: > 10 µM

SMILES: COc1ccc(C2=C[C@@H](c3ccc(OC)c(OC)c3)c3c(c4ccccc4oc3=O)O2)cc1OC [Ligand 211490, (4S)-2,4-bis(3,4-dimethoxyphenyl)-4H-pyrano[3,2-c]chromen-5-one]
- IC50 [2, 5]: 0.5 µM
- Binding (RU) [3]: 102.9 RU
- Dissociation 1 (RU) [3]: 6.1 RU
- Dissociation 2 (RU) [3]: 2.1 RU

SMILES: NC(=O)C(=Cc1ccncc1)c1cccc2ccccc12 (stereo in doubt) [Ligand 144694, (E)-2-naphthalen-1-yl-3-pyridin-4-ylprop-2-enamide]
- IC50 [1]: > 10 µM
- IC50 [2, 5]: > 10 µM
- Binding (RU) [3]: 118.8 RU
- Dissociation 1 (RU) [3]: 6 RU
- Dissociation 2 (RU) [3]: 2.3 RU
- IC50 [4]: > 10 µM

SMILES: c1ccc(-c2ccc3c(c2)N[C@H]([C@H]2Nc4cc(-c5ccccc5)ccc4O2)O3)cc1 [Ligand 84100, (2S)-5-phenyl-2-[(2S)-5-phenyl-2,3-dihydro-1,3-benzoxazol-2-yl]-2,3-dihydro-1,3-benzoxazole]
- IC50 [1]: > 10 µM
- IC50 [2, 5]: > 10 µM
- Binding (RU) [3]: 71.2 RU
- Dissociation 1 (RU) [3]: 4.2 RU
- Dissociation 2 (RU) [3]: 2.2 RU
- IC50 [4]: > 10 µM

SMILES: NC1=N/C(=N\c2ccccc2)N[C@H](c2ccccc2)N1 [Ligand 3076, (4R)-6-N,4-diphenyl-1,4-dihydro-1,3,5-triazine-2,6-diamine]
- IC50 [2, 5]: 0.25 µM
- Binding (RU) [3]: 92.2 RU
- Dissociation 1 (RU) [3]: 3.2 RU
- Dissociation 2 (RU) [3]: 1.6 RU

SMILES: Cc1cc(-c2ccc(N3C(=O)CC4(CCCC4)C3=O)c(C)c2)ccc1N1C(=O)CC2(CCCC2)C1=O [Ligand 308835, 2-[4-[4-(1,3-dioxo-2-azaspiro[4.4]nonan-2-yl)-3-methylphenyl]-2-methylphenyl]-2-azaspiro[4.4]nonane-1,3-dione]
- IC50 [1]: > 10 µM
- IC50 [2, 5]: > 10 µM
- Binding (RU) [3]: 64.8 RU
- Dissociation 1 (RU) [3]: 7.1 RU
- Dissociation 2 (RU) [3]: 5.2 RU
- IC50 [4]: > 10 µM

SMILES: O=C(O)C[C@H]1OCC=C2CN3CC[C@]45c6ccccc6N[C@H]4[C@H]1[C@H]2C[C@H]35 [Ligand 121861]
- IC50 [1]: > 10 µM
- IC50 [2, 5]: > 10 µM
- binding to recombinant E2 protein by SPR (in words) [3]: bound
- Binding (RU) [3]: 88.4 RU
- rate of ligand dissociation (in words) [3]: slower off rates
- Dissociation 1 (RU) [3]: 26.1 RU
- Dissociation 2 (RU) [3]: 20.4 RU
- IC50 [4]: > 10 µM

SMILES: Cc1nc(/N=C(\N)N(C)C)[nH]c(=O)c1C [Ligand 113486, 2-(5,6-dimethyl-4-oxo-1H-pyrimidin-2-yl)-1,1-dimethylguanidine]
- IC50 [1]: > 10 µM
- IC50 [2, 5]: > 10 µM
- Binding (RU) [3]: 104.7 RU
- Dissociation 1 (RU) [3]: 7 RU
- Dissociation 2 (RU) [3]: 2.6 RU
- IC50 [4]: > 10 µM

SMILES: C[C@]12CC[C@@H]3c4ccc(OCC(=O)O)cc4CC[C@H]3[C@@H]1CCC2=O [Ligand 86467, 2-[[(8R,9S,13S,14S)-13-methyl-17-oxo-7,8,9,11,12,14,15,16-octahydro-6H-cyclopenta[a]phenanthren-3-yl]oxy]acetate]
- IC50 [1]: > 10 µM
- IC50 [2, 5]: > 10 µM
- binding to recombinant E2 protein by SPR (in words) [3]: bound
- Binding (RU) [3]: 54.9 RU
- Dissociation 1 (RU) [3]: 1.9 RU
- Dissociation 2 (RU) [3]: 0.8 RU
- IC50 [4]: > 10 µM

SMILES: NC1=Nc2ccccc2C(=O)[N+]1=C(N)N [Ligand 403379, 2-amino-3-(diaminomethylidene) quinazolin-3-ium-4-one]
- IC50 [1]: > 10 µM
- IC50 [2, 5]: > 10 µM
- Binding (RU) [3]: 58 RU
- Dissociation 1 (RU) [3]: 2.8 RU
- Dissociation 2 (RU) [3]: 1.1 RU
- IC50 [4]: > 10 µM

SMILES: CC[C@@]1(O)C(=O)OCc2c1cc1n(c2=O)Cc2cc3c(NC(=O)CN)cccc3nc2-1.Cl [Ligand 639174]
- IC50 ([2]; Huh-7 cells, 30 hours): 0.03 µM
- Binding (RU) [3]: 55.4 RU
- Dissociation 1 (RU) [3]: 2.3 RU
- Dissociation 2 (RU) [3]: 0.6 RU

SMILES: Cc1ccc([N+](=O)[O-])cc1NC(=O)Nc1onc(C)c1C [Ligand 213700, 1-(3,4-dimethyl-1,2-oxazol-5-yl)-3-(2-methyl-5-nitrophenyl)urea]
- IC50 [1]: > 10 µM
- IC50 [2, 5]: > 10 µM
- Binding (RU) [3]: 62 RU
- Dissociation 1 (RU) [3]: 3.1 RU
- Dissociation 2 (RU) [3]: 0.8 RU
- IC50 [4]: > 10 µM

SMILES: CCCc1nc(NC(=O)c2ccccc2)nc(NC(=O)c2ccccc2)n1 [Ligand 359472, N-(4-benzamido-6-propyl-1,3,5-triazin-2-yl)benzamide]
- IC50 [1]: > 10 µM
- IC50 [2, 5]: > 10 µM
- Binding (RU) [3]: 62 RU
- Dissociation 1 (RU) [3]: 2.5 RU
- Dissociation 2 (RU) [3]: 0.8 RU
- IC50 [4]: > 10 µM

SMILES: CC1(C)N=C(N)N=C(N)N1c1ccc(OCCCOc2ccccc2)c(Cl)c1 [Ligand 133071, 3-[3-chloro-4-(3-phenoxypropoxy)phenyl]-4,4-dimethyl-1H-1,3,5-triazin-3-ium-2,6-diamine]
- IC50 [2, 5]: 0.1 µM
- Binding (RU) [3]: 276.3 RU
- Dissociation 1 (RU) [3]: 1.8 RU
- Dissociation 2 (RU) [3]: −2 RU

SMILES: O=[N+]([O-])c1cc([N+](=O)[O-])c2cccnc2c1O [Ligand 57103]
- IC50 [2, 5]: 0.3 µM
- Binding (RU) [3]: 81.6 RU
- rate of ligand dissociation (in words) [3]: slower off rates
- Dissociation 1 (RU) [3]: 11.4 RU
- Dissociation 2 (RU) [3]: 2.5 RU

SMILES: NC1=N[C@@H](c2ccc(Cl)cc2)N(c2ccc(S(N)(=O)=O)cc2)C(N)=N1 [Ligand 117268]
- IC50 [1]: > 10 µM
- IC50 [2, 5]: 0.1 µM
- Binding (RU) [3]: 88.5 RU
- Dissociation 1 (RU) [3]: 4.1 RU
- Dissociation 2 (RU) [3]: 1.2 RU
- IC50 [4]: > 10 µM

SMILES: O=C1CCCc2cc3c(cc21)CC1(C3)Cc2cc3c(cc2C1)C(=O)CCC3 [Ligand 670283, 2,2′-spirobi[3,6,7,8-tetrahydro-1H-cyclopenta[g]naphthalene]-5,5′-dione]
- IC50 [2, 5]: 3 µM
- Binding (RU) [3]: 54.3 RU
- Dissociation 1 (RU) [3]: 4 RU
- Dissociation 2 (RU) [3]: 1.4 RU

SMILES: CC12CCC3C(CCC4Cc5[nH]c6ccccc6c5CC43C)C1CCC2O (stereo not shown) [Ligand 60785]
- IC50 [2, 5]: 3.5 µM
- Binding (RU) [3]: 70.4 RU
- Dissociation 1 (RU) [3]: 2.8 RU
- Dissociation 2 (RU) [3]: 0.6 RU

SMILES: Cc1ccc([N+](=O)[O-])cc1NC(=O)Nc1ccc(S(N)(=O)=O)cc1 [Ligand 146554, 1-(2-methyl-5-nitrophenyl)-3-(4-sulfamoylphenyl)urea]
- IC50 [2, 5]: > 10 µM
- Binding (RU) [3]: 63.4 RU
- Dissociation 1 (RU) [3]: 3.1 RU
- Dissociation 2 (RU) [3]: 0.8 RU
